Test results: the supplement of paper PMC8617591

Assays:
[1] = test system: Mycobacterium tuberculosis Erdman (autoluminescent); assay: total FIC50 (Loewe) at 50% inhibition, three-drug combination (log2); higher = more antagonistic
Method: (§1)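 DiaMOND equipotent three-drug combination dose responses (10 doses, 1.5- or 2-fold spacing, centred on IC90) against autoluminescent M. tuberculosis Erdman in 8 in vitro models. Read-out is OD600, or luminescence for the intracellular and dormancy models, normalised to untreated wells. Hill-fit Einf, AUC25 and GRinf are potency metrics; FIC50 and FIC90 are total Loewe fractional inhibitory concentrations as log2 (negative = synergy).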

[2] = test system: Mycobacterium tuberculosis Erdman (autoluminescent); assay: GRinf, maximum normalised growth rate inhibition (three-drug combination) (unitless (-1 to 1)); higher = less effect (negative = killing)
Method: as §1

[3] = test system: Mycobacterium tuberculosis Erdman (autoluminescent); assay: total FIC90 (Loewe) at 90% inhibition, three-drug combination (log2); higher = more antagonistic
Method: as §1

[4] = test system: Mycobacterium tuberculosis Erdman (autoluminescent); assay: AUC25, normalised area under dose response up to IC25 (three-drug combination) (fraction (0-1)); higher = more potent at low dose
Method: as §1

[5] = test system: Mycobacterium tuberculosis Erdman (autoluminescent); assay: Einf, fitted maximum growth inhibition of three-drug combination (fraction); higher = stronger maximal inhibition
Method: as §1

CC(=O)NC[C@H]1CN(c2ccc(N3CCOCC3)c(F)c2)C(=O)O1 [linezolid] + COc1c(N2C[C@@H]3CCCN[C@@H]3C2)c(F)cc2c(=O)c(C(=O)O)cn(C3CC3)c12 [moxifloxacin] + CO[C@H]1/C=C/O[C@@]2(C)Oc3c(C)c(O)c4c(O)c(c(/C=N/N5CCN(C6CCCC6)CC5)c(O)c4c3C2=O)NC(=O)/C(C)=C\C=C\[C@H](C)[C@H](O)[C@@H](C)[C@@H](O)[C@@H](C)[C@H](OC(C)=O)[C@@H]1C [rifapentine]
Settings	AUC25, [4]	Einf, [5]	GRinf, [2]	total FIC50, [1]	total FIC90, [3]
in vitro model: acidic pH 5.7, time point: constant (~7 days, model-specific)	0.0572	0.8	0.0276	0.827	–
in vitro model: acidic pH 5.7, time point: terminal (~4-5 doublings, model-specific)	0.0558	0.976	-0.0724	0.952	0.684
in vitro model: intracellular J774, time point: constant = terminal	–	0.911	-0.0811	–	0.0429

Settings	AUC25, [4]	Einf, [5]	GRinf, [2]	total FIC50, [1]	total FIC90, [3]
in vitro model: butyrate, time point: constant (~7 days, model-specific)	0.0841	0.876	0.149	0.365	0.691
in vitro model: butyrate, time point: terminal (~4-5 doublings, model-specific)	0.0527	0.929	0.0958	0.352	0.196
in vitro model: cholesterol 0.05 mM, time point: constant (~7 days, model-specific)	0.157	0.694	-0.35	0.586	–
in vitro model: cholesterol 0.05 mM, time point: terminal (~4-5 doublings, model-specific)	0.129	0.909	-0.32	0.581	-0.237
in vitro model: cholesterol-high 0.2 mM, time point: constant (~7 days, model-specific)	0.11	0.913	-0.639	0.553	0.386
in vitro model: cholesterol-high 0.2 mM, time point: terminal (~4-5 doublings, model-specific)	0.113	1	-0.938	0.377	0.836
in vitro model: dormancy (butyrate + nitrate, low O2), time point: constant (~7 days, model-specific)	0.0602	0.862	0.223	1.04	0.925
in vitro model: dormancy (butyrate + nitrate, low O2), time point: terminal (~4-5 doublings, model-specific)	0.0346	0.979	-0.11	1.31	1.02
in vitro model: standard 7H9 glycerol, time point: constant = terminal	0.0607	0.902	0.0317	0.709	0.569
in vitro model: valerate, time point: constant (~7 days, model-specific)	0.109	0.834	0.129	0.0907	–
in vitro model: valerate, time point: terminal (~4-5 doublings, model-specific)	0.0452	0.914	0.0886	0.472	0.387

CC(=O)NC[C@H]1CN(c2ccc(N3CCOCC3)c(F)c2)C(=O)O1 [linezolid] + COc1c(N2C[C@@H]3CCCN[C@@H]3C2)c(F)cc2c(=O)c(C(=O)O)cn(C3CC3)c12 [moxifloxacin] + CO[C@H]1/C=C/O[C@@]2(C)Oc3c(C)c(O)c4c(O)c(c(/C=N/N5CCN(C)CC5)c(O)c4c3C2=O)NC(=O)/C(C)=C\C=C\[C@H](C)[C@H](O)[C@@H](C)[C@@H](O)[C@@H](C)[C@H](OC(C)=O)[C@@H]1C [rifampicin]
Settings	AUC25, [4]	Einf, [5]	GRinf, [2]	total FIC50, [1]	total FIC90, [3]
in vitro model: acidic pH 5.7, time point: constant (~7 days, model-specific)	0.0527	0.811	-0.0255	0.498	–
in vitro model: acidic pH 5.7, time point: terminal (~4-5 doublings, model-specific)	0.0717	0.984	-0.147	0.628	0.503
in vitro model: intracellular J774, time point: constant = terminal	–	0.919	-0.103	–	0.656

Settings	AUC25, [4]	Einf, [5]	GRinf, [2]	total FIC50, [1]	total FIC90, [3]
in vitro model: butyrate, time point: constant (~7 days, model-specific)	0.0848	0.857	0.177	0.137	–
in vitro model: butyrate, time point: terminal (~4-5 doublings, model-specific)	0.0684	0.929	0.128	0.112	0.0683
in vitro model: cholesterol 0.05 mM, time point: constant (~7 days, model-specific)	0.156	0.709	-0.119	0.272	–
in vitro model: cholesterol 0.05 mM, time point: terminal (~4-5 doublings, model-specific)	0.124	0.916	-0.285	4.84	-0.628
in vitro model: cholesterol-high 0.2 mM, time point: constant (~7 days, model-specific)	0.0752	0.889	-0.343	0.731	-0.284
in vitro model: cholesterol-high 0.2 mM, time point: terminal (~4-5 doublings, model-specific)	0.0984	1	-0.901	0.947	0.931
in vitro model: dormancy (butyrate + nitrate, low O2), time point: constant (~7 days, model-specific)	0.0613	0.873	0.239	1.14	0.815
in vitro model: dormancy (butyrate + nitrate, low O2), time point: terminal (~4-5 doublings, model-specific)	0.0476	0.971	-0.0219	0.897	0.88
in vitro model: standard 7H9 glycerol, time point: constant = terminal	0.0568	0.839	0.261	0.691	–
in vitro model: valerate, time point: constant (~7 days, model-specific)	0.0669	0.803	0.0279	0.393	–
in vitro model: valerate, time point: terminal (~4-5 doublings, model-specific)	0.0324	0.928	0.0628	0.609	0.105

CC(=O)NC[C@H]1CN(c2ccc(N3CCOCC3)c(F)c2)C(=O)O1 [linezolid] + COc1c(N2C[C@@H]3CCCN[C@@H]3C2)c(F)cc2c(=O)c(C(=O)O)cn(C3CC3)c12 [moxifloxacin] + NC(=O)c1cnccn1 [pyrazinamide]
Settings	AUC25, [4]	Einf, [5]	GRinf, [2]	total FIC50, [1]	total FIC90, [3]
in vitro model: acidic pH 5.7, time point: constant (~7 days, model-specific)	0.0593	0.734	-0.345	-0.252	–
in vitro model: acidic pH 5.7, time point: terminal (~4-5 doublings, model-specific)	0.0649	0.955	-0.38	1.52	-0.8
in vitro model: intracellular J774, time point: constant = terminal	–	0.939	-0.17	–	0.559

Settings	AUC25, [4]	Einf, [5]	GRinf, [2]	total FIC50, [1]	total FIC90, [3]
in vitro model: butyrate, time point: constant (~7 days, model-specific)	0.108	0.891	0.0582	0.00706	2.34
in vitro model: butyrate, time point: terminal (~4-5 doublings, model-specific)	0.0904	0.952	0.0307	0.0931	0.745
in vitro model: cholesterol 0.05 mM, time point: constant (~7 days, model-specific)	0.145	0.704	-0.234	–	–
in vitro model: cholesterol 0.05 mM, time point: terminal (~4-5 doublings, model-specific)	0.147	0.932	-0.426	0.356	–
in vitro model: cholesterol-high 0.2 mM, time point: constant (~7 days, model-specific)	0.106	0.923	-0.819	0.486	–
in vitro model: cholesterol-high 0.2 mM, time point: terminal (~4-5 doublings, model-specific)	0.115	1	-1	0.334	0.717
in vitro model: dormancy (butyrate + nitrate, low O2), time point: constant (~7 days, model-specific)	0.0721	0.855	0.269	0.651	0.461
in vitro model: dormancy (butyrate + nitrate, low O2), time point: terminal (~4-5 doublings, model-specific)	0.0321	0.973	-0.0525	0.786	0.354
in vitro model: standard 7H9 glycerol, time point: constant = terminal	0.0843	0.962	-0.271	–	–
in vitro model: valerate, time point: constant (~7 days, model-specific)	0.0976	0.87	0.12	-0.0785	–
in vitro model: valerate, time point: terminal (~4-5 doublings, model-specific)	0.0603	0.921	0.0594	0.266	0.56
